Data from ChEMBL document CHEMBL5325463, “Novel spiroindoline quinazolinedione derivatives as anticancer agents and potential FLT3 kinase inhibitors” (Bioorg Med Chem, 2023).

Experiments:
[1] = test system: EBC-1; assay: cells; settings: Homo sapiens, EBC-1, 72 h
Description: Antiproliferative activity against human EBC-1 cells incubated for 3 days by MTT assay

[2] = test system: A549; assay: cells; settings: Homo sapiens, A549, 72 h
Description: Antiproliferative activity against human A549 cells incubated for 3 days by MTT assay

[3] = test system: HT-29; assay: cells; settings: Homo sapiens, HT-29, 72 h
Description: Antiproliferative activity against human HT-29 cells incubated for 3 days by MTT assay

[4] = test system: K562; assay: cells; settings: Homo sapiens, K562, 72 h
Description: Antiproliferative activity against human K562 cells incubated for 3 days by MTT assay

[5] = test system: K562; assay: Induction of cell cycle arrest in human K562 cells assessed as accumulation at sub G1 phase at 10 uM incubated for 48 hrs by Rnase/PI staining based flow cytometry (reference value: 0.92 +/- 0.12); format: functional
[6] = test system: K562; assay: Induction of cell cycle arrest in human K562 cells assessed as accumulation at G0/G1 phase at 10 uM incubated for 48 hrs by Rnase/PI staining based flow cytometry (reference value: 57.34 +/- 3.14); format: functional
[7] = test system: K562; assay: Induction of cell cycle arrest in human K562 cells assessed as accumulation at S phase at 10 uM incubated for 48 hrs by Rnase/PI staining based flow cytometry (reference value: 17.95 +/- 3.42); format: functional
[8] = test system: K562; assay: Induction of cell cycle arrest in human K562 cells assessed as accumulation at G2/M phase at 10 uM incubated for 48 hrs by Rnase/PI staining based flow cytometry (reference value: 23.78 +/- 6.09); format: functional
[9] = test system: K562; assay: Induction of cell cycle arrest in human K562 cells assessed as accumulation at sub G1 phase at 50 uM incubated for 48 hrs by Rnase/PI staining based flow cytometry (reference value: 0.92 +/- 0.12); format: functional
[10] = test system: K562; assay: Induction of cell cycle arrest in human K562 cells assessed as accumulation at G0/G1 phase at 50 uM incubated for 48 hrs by Rnase/PI staining based flow cytometry (reference value: 57.34 +/- 3.14); format: functional
[11] = test system: K562; assay: Induction of cell cycle arrest in human K562 cells assessed as accumulation at S phase at 50 uM incubated for 48 hrs by Rnase/PI staining based flow cytometry (reference value: 17.95 +/- 3.42); format: functional
[12] = test system: K562; assay: Induction of cell cycle arrest in human K562 cells assessed as accumulation at G2/M phase at 50 uM incubated for 48 hrs by Rnase/PI staining based flow cytometry (reference value: 23.78 +/- 6.09); format: functional
[13] = biological target: Mast/stem cell growth factor receptor Kit (Homo sapiens) (UniProt P10721); assay: Inhibition of KIT (unknown origin) at 10 uM by radiometric assay relative to control
[14] = biological target: Vascular endothelial growth factor receptor 2 (Homo sapiens) (UniProt P35968); assay: Inhibition of KDR (unknown origin) at 10 uM by radiometric assay relative to control
[15] = biological target: Mitogen-activated protein kinase 3 (Homo sapiens) (UniProt P27361); assay: Inhibition of MAPK3 (unknown origin) at 10 uM by radiometric assay relative to control
[16] = biological target: Dual specificity mitogen-activated protein kinase kinase 1 (Homo sapiens) (UniProt Q02750); assay: Inhibition of MAP2K1 (unknown origin) at 10 uM by radiometric assay relative to control
[17] = biological target: Hepatocyte growth factor receptor (Homo sapiens) (UniProt P08581); assay: Inhibition of MET (unknown origin) at 10 uM by radiometric assay relative to control
[18] = biological target: Macrophage-stimulating protein receptor (Homo sapiens) (UniProt Q04912); assay: Inhibition of MST1R (unknown origin) at 10 uM by radiometric assay relative to control
[19] = biological target: Platelet-derived growth factor receptor alpha (Homo sapiens) (UniProt P16234); assay: Inhibition of PDGFRA (unknown origin) at 10 uM by radiometric assay relative to control
[20] = biological target: Platelet-derived growth factor receptor beta (Homo sapiens) (UniProt P09619); assay: Inhibition of PDGFRB (unknown origin) at 10 uM by radiometric assay relative to control
[21] = biological target: Receptor-type tyrosine-protein kinase FLT3 (Homo sapiens) (UniProt P36888); assay: Inhibition of human FLT3 at 10 uM by radiometric assay relative to control
[22] = test system: T1, Receptor-type tyrosine-protein kinase FLT3 (Homo sapiens), P36888 [D835Y]; assay: Inhibition of human FLT3 D835Y mutant at 10 uM by radiometric assay relative to control
T1 sequence (whole entry): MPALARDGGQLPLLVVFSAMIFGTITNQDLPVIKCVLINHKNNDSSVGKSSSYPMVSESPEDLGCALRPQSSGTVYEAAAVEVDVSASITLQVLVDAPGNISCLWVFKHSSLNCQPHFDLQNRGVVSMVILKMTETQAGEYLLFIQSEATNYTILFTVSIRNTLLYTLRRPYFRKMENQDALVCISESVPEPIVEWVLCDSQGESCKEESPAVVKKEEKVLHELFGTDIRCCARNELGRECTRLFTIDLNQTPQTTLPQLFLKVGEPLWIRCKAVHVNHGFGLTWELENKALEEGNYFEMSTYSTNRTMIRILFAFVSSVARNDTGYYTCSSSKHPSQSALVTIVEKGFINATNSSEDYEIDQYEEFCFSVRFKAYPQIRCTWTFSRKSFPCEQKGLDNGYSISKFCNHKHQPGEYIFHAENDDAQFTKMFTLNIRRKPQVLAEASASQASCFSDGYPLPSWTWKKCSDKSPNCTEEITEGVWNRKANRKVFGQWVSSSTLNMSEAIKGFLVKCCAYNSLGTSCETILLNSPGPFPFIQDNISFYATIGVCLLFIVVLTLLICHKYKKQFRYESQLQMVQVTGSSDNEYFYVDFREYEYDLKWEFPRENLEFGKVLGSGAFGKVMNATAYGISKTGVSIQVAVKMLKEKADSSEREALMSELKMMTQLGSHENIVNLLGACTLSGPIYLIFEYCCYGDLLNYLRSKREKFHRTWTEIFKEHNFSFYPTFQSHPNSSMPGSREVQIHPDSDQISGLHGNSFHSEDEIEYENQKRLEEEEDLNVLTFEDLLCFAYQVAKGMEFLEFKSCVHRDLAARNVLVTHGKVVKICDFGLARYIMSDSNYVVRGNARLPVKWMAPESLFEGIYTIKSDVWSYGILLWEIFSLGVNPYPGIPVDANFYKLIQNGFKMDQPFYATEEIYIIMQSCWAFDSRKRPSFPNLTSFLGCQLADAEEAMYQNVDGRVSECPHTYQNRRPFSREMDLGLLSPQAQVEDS

[23] = biological target: Receptor-type tyrosine-protein kinase FLT3 (Homo sapiens) (UniProt P36888); assay: Inhibition of human FLT3 at 25 uM by radiometric assay relative to control
[24] = test system: T1, Receptor-type tyrosine-protein kinase FLT3 (Homo sapiens), P36888 [D835Y]; assay: Inhibition of human FLT3 D835Y mutant at 25 uM by radiometric assay relative to control

Sequence of Mitogen-activated protein kinase 3 (Homo sapiens) (P27361 whole entry): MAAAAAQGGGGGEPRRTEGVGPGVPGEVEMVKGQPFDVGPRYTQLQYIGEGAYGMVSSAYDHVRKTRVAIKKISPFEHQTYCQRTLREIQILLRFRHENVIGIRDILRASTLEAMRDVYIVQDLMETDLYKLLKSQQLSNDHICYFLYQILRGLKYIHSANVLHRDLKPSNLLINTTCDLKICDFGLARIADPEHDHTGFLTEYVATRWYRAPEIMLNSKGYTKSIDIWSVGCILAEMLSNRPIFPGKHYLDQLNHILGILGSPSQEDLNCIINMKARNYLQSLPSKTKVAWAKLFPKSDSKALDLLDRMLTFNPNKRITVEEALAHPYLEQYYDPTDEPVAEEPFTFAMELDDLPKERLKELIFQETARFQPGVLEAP
Sequence of Platelet-derived growth factor receptor alpha (Homo sapiens) (P16234 whole entry): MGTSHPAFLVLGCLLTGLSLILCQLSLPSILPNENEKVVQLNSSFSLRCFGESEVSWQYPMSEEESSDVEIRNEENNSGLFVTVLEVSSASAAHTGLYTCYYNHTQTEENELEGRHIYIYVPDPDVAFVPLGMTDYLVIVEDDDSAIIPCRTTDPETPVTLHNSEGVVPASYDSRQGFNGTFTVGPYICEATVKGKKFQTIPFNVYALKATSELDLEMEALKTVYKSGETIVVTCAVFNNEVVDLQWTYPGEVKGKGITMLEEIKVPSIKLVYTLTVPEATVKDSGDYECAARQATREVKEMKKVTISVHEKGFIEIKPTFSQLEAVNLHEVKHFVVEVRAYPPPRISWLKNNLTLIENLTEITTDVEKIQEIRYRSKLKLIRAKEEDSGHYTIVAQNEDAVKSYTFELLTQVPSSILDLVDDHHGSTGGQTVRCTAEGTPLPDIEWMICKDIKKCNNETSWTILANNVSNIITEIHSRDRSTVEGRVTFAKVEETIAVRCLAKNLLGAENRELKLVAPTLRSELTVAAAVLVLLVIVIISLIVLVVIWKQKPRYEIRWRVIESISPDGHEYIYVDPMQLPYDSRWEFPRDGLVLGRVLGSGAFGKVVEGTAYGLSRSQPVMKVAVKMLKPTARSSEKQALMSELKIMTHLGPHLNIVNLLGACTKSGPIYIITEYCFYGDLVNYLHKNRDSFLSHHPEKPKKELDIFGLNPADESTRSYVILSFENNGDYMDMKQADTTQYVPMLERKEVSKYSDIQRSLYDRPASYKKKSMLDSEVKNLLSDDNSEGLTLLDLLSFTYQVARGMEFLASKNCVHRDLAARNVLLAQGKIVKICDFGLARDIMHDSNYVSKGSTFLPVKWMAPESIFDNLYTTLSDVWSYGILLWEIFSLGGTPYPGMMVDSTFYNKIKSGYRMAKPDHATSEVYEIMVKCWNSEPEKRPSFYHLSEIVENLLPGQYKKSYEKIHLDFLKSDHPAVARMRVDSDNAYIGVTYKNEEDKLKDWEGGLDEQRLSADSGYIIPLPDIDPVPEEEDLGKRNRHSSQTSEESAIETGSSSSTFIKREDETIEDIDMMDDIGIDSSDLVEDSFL
Sequence of Dual specificity mitogen-activated protein kinase kinase 1 (Homo sapiens) (Q02750 whole entry): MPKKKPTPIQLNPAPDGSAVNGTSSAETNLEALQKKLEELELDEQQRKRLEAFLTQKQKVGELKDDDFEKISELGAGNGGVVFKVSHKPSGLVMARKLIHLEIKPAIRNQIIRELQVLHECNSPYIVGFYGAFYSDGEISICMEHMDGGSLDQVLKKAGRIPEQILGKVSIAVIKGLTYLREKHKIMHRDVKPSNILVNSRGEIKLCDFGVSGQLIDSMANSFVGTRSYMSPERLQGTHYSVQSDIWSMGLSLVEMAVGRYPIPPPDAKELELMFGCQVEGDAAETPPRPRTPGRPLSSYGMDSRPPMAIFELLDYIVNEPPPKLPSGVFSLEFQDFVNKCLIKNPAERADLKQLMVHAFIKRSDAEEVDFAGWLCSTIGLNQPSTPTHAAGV
Sequence of Macrophage-stimulating protein receptor (Homo sapiens) (Q04912 25-304 limits assumed): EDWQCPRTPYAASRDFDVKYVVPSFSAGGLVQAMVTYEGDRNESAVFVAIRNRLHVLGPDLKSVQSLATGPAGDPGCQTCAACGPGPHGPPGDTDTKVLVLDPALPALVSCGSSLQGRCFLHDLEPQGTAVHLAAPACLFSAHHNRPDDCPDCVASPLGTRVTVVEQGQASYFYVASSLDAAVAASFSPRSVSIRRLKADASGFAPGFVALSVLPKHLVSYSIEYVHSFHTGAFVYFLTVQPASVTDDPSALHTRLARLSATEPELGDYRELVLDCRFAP
Sequence of Macrophage-stimulating protein receptor (Homo sapiens) (Q04912 310-1400 limits assumed): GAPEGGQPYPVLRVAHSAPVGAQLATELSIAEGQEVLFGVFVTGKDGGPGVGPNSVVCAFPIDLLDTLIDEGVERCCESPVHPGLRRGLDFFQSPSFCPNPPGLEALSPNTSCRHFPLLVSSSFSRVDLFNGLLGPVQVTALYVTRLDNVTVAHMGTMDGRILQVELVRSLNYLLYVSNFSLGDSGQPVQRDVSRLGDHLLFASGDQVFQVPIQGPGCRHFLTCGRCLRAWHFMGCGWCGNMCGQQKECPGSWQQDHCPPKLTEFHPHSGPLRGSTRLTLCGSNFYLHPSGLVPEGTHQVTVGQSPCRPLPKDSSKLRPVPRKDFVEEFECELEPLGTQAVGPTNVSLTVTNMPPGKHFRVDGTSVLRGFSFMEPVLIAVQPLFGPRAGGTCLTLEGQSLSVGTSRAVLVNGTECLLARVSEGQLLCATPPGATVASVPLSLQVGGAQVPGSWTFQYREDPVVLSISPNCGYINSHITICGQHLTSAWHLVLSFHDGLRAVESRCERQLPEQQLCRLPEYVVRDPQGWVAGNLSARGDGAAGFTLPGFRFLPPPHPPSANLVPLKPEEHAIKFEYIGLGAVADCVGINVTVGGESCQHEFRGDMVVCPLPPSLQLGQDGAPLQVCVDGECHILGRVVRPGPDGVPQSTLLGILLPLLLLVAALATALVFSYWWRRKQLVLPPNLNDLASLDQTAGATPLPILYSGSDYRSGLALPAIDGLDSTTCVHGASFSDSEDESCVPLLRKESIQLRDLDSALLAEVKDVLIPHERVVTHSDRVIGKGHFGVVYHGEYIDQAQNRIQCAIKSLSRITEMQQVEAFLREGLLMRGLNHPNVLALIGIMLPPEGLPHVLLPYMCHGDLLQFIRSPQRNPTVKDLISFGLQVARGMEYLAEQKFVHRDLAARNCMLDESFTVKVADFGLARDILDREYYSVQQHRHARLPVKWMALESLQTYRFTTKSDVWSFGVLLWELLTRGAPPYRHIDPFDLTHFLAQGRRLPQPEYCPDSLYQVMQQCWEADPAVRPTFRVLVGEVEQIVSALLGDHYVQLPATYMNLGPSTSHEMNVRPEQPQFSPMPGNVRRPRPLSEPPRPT
Sequence of Mast/stem cell growth factor receptor Kit (Homo sapiens) (P10721 whole entry): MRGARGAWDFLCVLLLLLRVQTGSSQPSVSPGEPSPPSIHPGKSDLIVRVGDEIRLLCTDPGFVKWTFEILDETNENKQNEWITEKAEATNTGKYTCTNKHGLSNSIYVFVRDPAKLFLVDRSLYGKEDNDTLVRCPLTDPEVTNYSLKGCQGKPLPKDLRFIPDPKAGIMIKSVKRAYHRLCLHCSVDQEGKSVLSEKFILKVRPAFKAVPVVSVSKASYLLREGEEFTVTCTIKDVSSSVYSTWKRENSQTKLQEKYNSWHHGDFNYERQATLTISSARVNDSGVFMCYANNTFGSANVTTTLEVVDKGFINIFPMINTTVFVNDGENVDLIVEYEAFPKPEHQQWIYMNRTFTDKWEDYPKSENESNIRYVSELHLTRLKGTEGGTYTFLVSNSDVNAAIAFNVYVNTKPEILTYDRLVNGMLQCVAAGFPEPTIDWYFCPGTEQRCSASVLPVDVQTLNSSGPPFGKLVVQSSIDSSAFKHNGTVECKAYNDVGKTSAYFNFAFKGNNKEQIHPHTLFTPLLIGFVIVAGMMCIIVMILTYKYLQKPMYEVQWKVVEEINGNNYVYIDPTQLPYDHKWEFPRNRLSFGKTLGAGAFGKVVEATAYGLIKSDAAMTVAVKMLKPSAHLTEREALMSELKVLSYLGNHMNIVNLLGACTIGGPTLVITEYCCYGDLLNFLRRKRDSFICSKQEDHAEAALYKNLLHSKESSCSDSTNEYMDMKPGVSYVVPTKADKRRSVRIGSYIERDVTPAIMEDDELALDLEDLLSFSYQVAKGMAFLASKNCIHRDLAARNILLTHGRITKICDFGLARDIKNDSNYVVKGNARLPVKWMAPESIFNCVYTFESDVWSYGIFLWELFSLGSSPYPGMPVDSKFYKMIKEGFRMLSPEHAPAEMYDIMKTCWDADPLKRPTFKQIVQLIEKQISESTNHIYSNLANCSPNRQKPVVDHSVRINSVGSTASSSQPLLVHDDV

SMILES | IC50 [1] | IC50 [2] | IC50 [3] | IC50 [4] | other results
COc1cc2nccc(Oc3ccc(NC(=O)C4(C(=O)Nc5ccc(F)cc5)CC4)cc3)c2cc1OC [CABOZANTINIB] | 0.0592 µM | 16.2 µM | 3.7 µM | 1.9 µM | 
O=C1NC2(Nc3c(Br)cc(Br)cc31)C(=O)N(Cc1ccc(F)cc1)c1ccccc12 (centres undefined) | 34.6 µM | 45.4 µM | > 100 µM | > 100 µM | 
CCCCCN1C(=O)C2(NC(=O)c3ccccc3N2)c2ccccc21 (centres undefined) | > 100 µM | > 100 µM | > 100 µM | > 100 µM | 
O=C1NC2(Nc3c(Br)cc(Br)cc31)C(=O)N(Cc1ccc(Cl)cc1)c1ccccc12 (centres undefined) | 10.4 µM | 26.9 µM | 12.5 µM | 13.8 µM | Activity [5]: 1.04%; Activity [6]: 57.29%; Activity [7]: 17.89%; Activity [8]: 23.78%; Activity [9]: 1.41%; Activity [10]: 50.3%; Activity [11]: 21.06%; Activity [12]: 27.23%; inhibition [13]: 1%; inhibition [14]: 12%; inhibition [15]: -4%; inhibition [16]: -6%; inhibition [17]: 12%; inhibition [18]: 2%; inhibition [19]: 5%; inhibition [20]: -1%; inhibition [21]: 18%; inhibition [22]: 5%; inhibition [23]: 19%; inhibition [24]: -6%
Cc1ccc(CN2C(=O)C3(NC(=O)c4ccccc4N3)c3ccccc32)cc1 (centres undefined) | 20.3 µM | 26.2 µM | 29.2 µM |  | 
CC(C)(C)c1ccc(CN2C(=O)C3(NC(=O)c4cc(Br)cc(Br)c4N3)c3ccccc32)cc1 (centres undefined) | 19.6 µM | 45.5 µM | > 100 µM | > 100 µM | 
CCCCCN1C(=O)C2(NC(=O)c3cc(Br)cc(Br)c3N2)c2ccccc21 (centres undefined) | 24.7 µM | 47.1 µM | 51.9 µM | > 100 µM | 
O=C1NC2(Nc3c(Br)cc(Br)cc31)C(=O)N(Cc1ccc(Cl)c(Cl)c1)c1ccccc12 (centres undefined) | 19.8 µM | > 100 µM | 24.3 µM | > 100 µM | 
O=C1NC2(Nc3ccccc31)C(=O)N(Cc1ccc(Br)cc1)c1ccccc12 (centres undefined) | 38.7 µM | 39.7 µM | 71.9 µM | 19.9 µM | 
CCN1C(=O)C2(NC(=O)c3ccccc3N2)c2ccccc21 (centres undefined) | > 100 µM | > 100 µM | 28.5 µM | 50.4 µM | 
